# Reference: patent US11396511B2, “Substituted 9,13b-dihydro-1H-dibenzo[c,f]imidazo[1,5-a]azepin-3-ylbenzamides as anti-inflammatory and analgesic agents” (FRONTBIO CO., LTD., priority 2017, dated 2022)
# Assays:
# Raw 264.7 cells [1] = test: Cell viability measurement (MTS); format: cell-based
# Method: Raw 264.7 cells were plated in a 96-well cell culture plate (50,000 cells/well). The cell culture media were removed from the 96-well cell culture plate. 100 μl of MTS reagent (CellTiter 96 AQueous One Solution Cell Proliferation Assay, Promega) was added to each well and the reaction was allowed to proceed at 37° C. for 20 min. After the reaction was finished, the cell viability were determined by measuring the absorbance at a wavelength of 490 nm.
# Raw 264.7 cells [2] = test: Measurement of NO production in LPS-stimulated Raw 264.7 cells; format: cell-based; settings: for inhibition at 12.5 µM / inhibition at 25 µM / inhibition at 50 µM / inhibition at 100 µM: Mus musculus, RAW264.7, LPS 100 ng/ml, 24 h
# Method: Raw 264.7 cells were plated in a 96-well cell culture plate (50,000 cells/well). Lipopolysaccharide (LPS) was diluted to 100 ng/ml and the dilution was added to the cell culture media The LPS stimulus was applied for 24 h to induce the activity of the Raw 264.7 cells and supernatants (50 μl each) obtained from the 96-well cell culture plate were plated in a new plate. 50 μl of a sulfanilamide solution was added and the reaction was allowed to proceed for 10 min. 50 μl of a NED solution was added and the reaction was allowed to proceed for 10 min. The amount of NO produced from the cells in the cell culture media was determined by measuring the absorbance at a wavelength of 540 nm.
SMILES,"cell toxicity (cell viability, MTS) (Raw 264.7 cells [1])",inhibition at 12.5 µM (Raw 264.7 cells [2]) [%],inhibition at 25 µM (Raw 264.7 cells [2]) [%],inhibition at 50 µM (Raw 264.7 cells [2]) [%],inhibition at 100 µM (Raw 264.7 cells [2]; 100 μM) [%],reduction of NO production (in words) (Raw 264.7 cells [2]; together with LPS (100 ng/ml)),"reduction of NO production (in words) (Raw 264.7 cells [2]; 100 μM, LPS (100 ng/ml))"
"CC(=O)Oc1ccccc1C(=O)O [Aspirin, acetylsalicylic acid (aspirin)]",no cell toxicities were observed,0,0,9.29,12.4,less effective in reducing the production of NO,–
"NC1=NCC2c3ccccc3Cc3ccccc3N12 (stereo not drawn) [Epinastine, epinastine]",no cell toxicities were observed,0,5.48,18.7,33.4,–,found to reduce the production of NO
O=C(O)c1ccccc1O [Salicylic acid],no cell toxicities were observed,0,1.27,7.18,15.6,less effective in reducing the production of NO,–
